The test system of data set [1] is AML12 cells. The experiment in a line: Apoptosis markers Annexin V and Caspase 3/7 by flow cytometry. It is filed as cell-based. As to conditions: 1 mM, 24 hours.
Method: To assess this toxicity, C2C12, Neuro2a and AML12 cells were treated with 1 mM NADH for 24 hours, and then the total cell numbers were measured. […] The cells were stained with trypan blue and then counted with a hemocytometer. […] The Annexin V/PI staining kit and Caspases3/7/SYTOX dead cell staining kit (Life Technologies) were used and cells were counted with a BD FACSCelesta™ flow cytometer. The quadrants of apoptotic cells, necrotic cells and living cells were identified and quantified according to the manufacturer's instructions.
To examine apoptotic markers, AML12 cells were stained for Annexin V and Caspase 3/7, and cells were counted with a flow cytometer. […] Data are expressed as mean±SD, n=3. Quadrants with live cells (brown), necrotic cells (gray) and apoptotic cells (blue) were quantified.
Data set [2] concerns AML12 cells. As to the kind of experiment: Rescue from hydrogen peroxide (HP) genotoxicity: cell survival and NAD+ level. As to conditions: 3 h. Format: cell-based. How it is done:
Because the increasing extent of NAD+ concentration is of interest, whether NADH can improve the cell survival rate under the stressful conditions of depletion of NAD+ was also assessed. To that end, as genotoxicity can lead to DNA damage, activate poly(ADP-ribose) polymerases and induce NAD+ depletion, genotoxicity was tested. Strong genotoxicity will lead to severe consumption of NAD+ by cells, resulting in cell death. To test genotoxicity, AML12 cells were treated with 500 μM hydrogen peroxide (HP) for 3 hours in the presence or absence of 1 mM NADH, and then the cells were counted and NAD+ was detected in the samples co-treated with NADH (1 mM) or its vehicle. FIG. 4A is a graph comparing the cell survival rate of the HP treated cells, NADH treated cells, and the HP+NADH treated cells relative to a control. And FIG. 4B is a graph comparing the NAD+ level of the HP treated cells, NADH treated cells, and the HP+NADH treated cells relative to a control. The cell survival rates and cellular NAD+ levels in FIGS. 4A-B are expressed as mean±SD.
The effects of NADH and NMN at a lower concentration (250 μM) on AML12 cells was also tested in a separate assay. Specifically, AML12 cells were treated with 500 μM HP in the presence or absence of 250 μm NADH or NMN for 3 h. FIG. 4C is a graph comparing the cell survival rate of the HP treated cells, HP+NADH treated cells, and the HP+NMN treated cells relative to a control. And FIG. 4D is a graph comparing the NAD+ level of the HP treated cells, HP+NADH treated cells, and the HP+NMN treated cells relative to a control. The cell survival rate and cellular NAD+ levels in FIGS. 4C-D are expressed as mean±SD.

In data set [3] the test system is male C57BL/6J mice. The experiment in a line: Liver NAD+/NADH ratio after ethanol administration. Format: in vivo. As to conditions: 500 mg/kg intragastric 15 min before 8 ml/kg ethanol (40% w/v). The protocol: The ratio of NAD^+/NADH in the liver was then measured at different times after ethanol administration. The NAD^+/NADH ratios were detected using a NAD+/NADH Quantification Colorimetric Kit (ABIN411692) in compliance with the manufacturer's instructions. Fresh tissue lysate was prepared from snap cryo-frozen liver samples stored in […], and 20 mg liver was homogenized with NAD^+/NADH extraction buffer (400 μL). In order to quickly remove enzymes that may consume NADH, the samples were filtered through a 10 kD molecular weight cut-off filter before detection. […] Concentrations were calculated using an NADH standard curve.

Data set [4] concerns male C57BL/6J mice. The experiment in a line: Liver histopathology by Oil Red O staining. Format: in vivo. The note with it: 500 mg/kg intragastric 15 min prior to 8 ml/kg ethanol. The protocol: Liver histopathology was detected by Oil Red 0 staining. According to the standard operating procedure, some liver tissues were fixed for histopathological assessment. The other part of the liver was stored at −80° C. […] frozen sections were stained with Oil Red 0 to detect liver steatosis. The stained sections were examined by a 400× optical microscope. The level of VLDL in serum samples was examined with a Bio-Tek synergy2 Multiscan Spectrum (Botten Instruments Co.).

The subject of data set [5] is male C57BL/6J mice. The experiment in a line: Liver triglyceride and serum VLDL (lipid metabolism). Format: in vivo. The note with it: 500 mg/kg intragastric 15 min prior to 8 ml/kg ethanol. How it is done:
Liver samples were prepared with homogenization in cold isotonic saline. The homogenate (10%, w/v) was centrifuged at 4500 g for 10 minutes and the supernatant was used for biochemical analysis. The MDA, SOD and TG levels were determined with commercial kits (Abcam, #ab118970; Thermofisher, #EIASODC and Abcam, ab65336) according to the manufacturer's instructions. The results were normalized to the total protein determined by BCA Protein Assay Kit (Abcam, #ab102536) according to the manufacturer's instructions. […] Liver histopathology was detected by Oil Red 0 staining. According to the standard operating procedure, some liver tissues were fixed for histopathological assessment. The other part of the liver was stored at −80° C. […] frozen sections were stained with Oil Red 0 to detect liver steatosis. The stained sections were examined by a 400× optical microscope. The level of VLDL in serum samples was examined with a Bio-Tek synergy2 Multiscan Spectrum (Botten Instruments Co.). To evaluate alcoholic liver injury, the index of liver lipid metabolism (i.e., the triglyceride (TG) level in liver tissue) and the activity of serum Very Low Density Lipoprotein (VLDL) were also measured in the mice treated as described above in connection with FIG. 9A. […] The data in both FIGS. 9A and 9B are expressed as mean±SD (n=8); *p<0.01 vs control; #p<0.01 vs alcohol exposure.

Data set [6] deals with male C57BL/6J mice. The experiment in a line: Blood ethanol and acetaldehyde levels after ethanol administration.
Setting [7] is: 500 μM HP + 250 μM compound, AML12 cells.
The mark [8] stands for this setting: 500 mg/kg intragastric 15 min before 8 ml/kg ethanol (40% w/v).

For the compound `NC(=O)C1=CN([C@@H]2O[C@H](COP(=O)(O)OP(=O)(O)OC[C@H]3O[C@@H](n4cnc5c(N)ncnc54)C(O)C3O)C(O)C2O)C=CC1` (stereo partly shown) [NADH, nicotinamide adenine dinucleotide (NAD)+hydrogen (H)], in the data set with AML12 cells [1], the “Annexin V or caspase 3/7 apoptosis markers vs control” value is “no significant changes”. Besides, in the data set with AML12 cells [2] (setting [7]), the “effect on NAD+ levels under HP” value is “protective effect” and the “effect on cell survival under HP” value is listed as “protective effect”. In addition, the “NAD+ level in HP co-treated cells” value with AML12 cells [2] (500 μM HP + 1 mM NADH, AML12 cells) is given as “remained high”. Moreover, the “cell survival rate under HP+NADH treatment” value with AML12 cells [2] (500 μM HP + 1 mM NADH, AML12 cells (HP alone 12%)) was about 72%. In addition, the “ethanol-induced decrease of liver NAD+/NADH redox ratio” value with male C57BL/6J mice [3] is “significantly inhibited this decrease”. The “degree of liver fatty degeneration (Oil Red O)” value with male C57BL/6J mice [4] was “noticeably decreased”. Also, in the data set with male C57BL/6J mice [5], the “liver TG level vs alcohol exposure alone” value was “decreased”, the “liver index vs alcohol exposure alone” value is listed as “decreased” and the “serum VLDL level vs alcohol exposure alone” value is on record as “decreased”. Besides, in the data set with male C57BL/6J mice [6] (setting [8]), the “acetaldehyde in the blood two hours after alcohol administration” value is “significantly reduced” and the “blood acetaldehyde levels within two hours after ethanol administration” value is “significantly increased”. In the data set on male C57BL/6J mice [6] (500 mg/kg oral 15 min before 8 ml/kg ethanol (40% w/v), 30 minutes after ethanol), the “ethanol in the blood” value is reported as “significantly reduced”.
